A word on the IC50: it is the concentration that inhibits the measured activity by half.

Chain of human full-length BTK Kinase (Q06187 whole entry): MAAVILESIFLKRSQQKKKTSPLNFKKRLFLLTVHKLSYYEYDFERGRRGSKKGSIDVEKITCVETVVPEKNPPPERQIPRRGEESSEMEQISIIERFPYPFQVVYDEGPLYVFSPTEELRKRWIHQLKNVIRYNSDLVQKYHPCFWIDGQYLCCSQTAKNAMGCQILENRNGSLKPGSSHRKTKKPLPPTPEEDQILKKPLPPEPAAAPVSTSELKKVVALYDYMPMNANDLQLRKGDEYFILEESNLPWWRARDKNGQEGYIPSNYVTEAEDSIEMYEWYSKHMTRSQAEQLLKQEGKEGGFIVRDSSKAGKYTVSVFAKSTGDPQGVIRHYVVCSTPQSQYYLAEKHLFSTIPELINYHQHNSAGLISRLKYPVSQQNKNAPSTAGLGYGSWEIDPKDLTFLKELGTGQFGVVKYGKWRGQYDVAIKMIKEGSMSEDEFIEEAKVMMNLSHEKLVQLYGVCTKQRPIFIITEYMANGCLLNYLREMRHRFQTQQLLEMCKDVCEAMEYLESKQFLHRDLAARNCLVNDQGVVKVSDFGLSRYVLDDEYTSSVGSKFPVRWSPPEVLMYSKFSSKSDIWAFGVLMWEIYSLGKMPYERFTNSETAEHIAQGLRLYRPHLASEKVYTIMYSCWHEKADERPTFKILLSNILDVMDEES

This assay has as its target human full-length BTK Kinase (Homo sapiens (Human), UniProt Q06187). The experiment in a line: Human BTK LanthaScreen Assay (TR-FRET). It is filed as biochemical. The conditions noted are these: 50 μM ATP, FAM-Srctide peptide substrate, read-out: BTK Inhibition IC50. The text has this: Human BTK LanthaScreen Assay
For orientation: In TR-FRET formats the signal depends on donor and acceptor labels being close together.
On to `C[C@H]1CC[C@@H](n2nc(-c3ccc(Oc4ccc(F)cc4F)cc3)c(C(N)=O)c2N)CN1C#N` (relative stereo) [Example 121, 5-amino-1-[(3R*,6S*)-1-cyano-6-methylpiperidin-3-yl]-3-[4-(2,4-difluorophenoxy)phenyl]-1H-pyrazole-4-carboxamide], for which the IC50 was found to be 9.9 nM.
The figure for `N#CN1CCCC(n2nc(-c3ccc(Oc4ccccc4)cc3)c(C(N)=O)c2N)C1` (single isomer, unassigned) [Example 3] is 3.3 nM.
Regarding `N#CN1CCCC(n2nc(-c3ccc(Oc4ccc(Cl)cc4)cc3)c(C(N)=O)c2N)C1` (single isomer, unassigned) [Example 14], the IC50 is 12.5 nM.
In the case of `Cc1ccc(Oc2ccc(-c3nn(C4CCCN(C#N)C4)c(N)c3C(N)=O)cc2)cc1C` (single isomer, unassigned) [Example 17], the IC50 stood at 0.4 nM.
The figure for `Cc1ccc(Oc2ccc(-c3nn(C4CCCN(C#N)C4)c(N)c3C(N)=O)cc2)cc1C` (single isomer, unassigned) [Example 18] is 3 nM.
Regarding `N#CN1CCCC(n2nc(-c3ccc(Oc4ccc(F)cc4F)cc3)c(C(N)=O)c2N)C1` (single isomer, unassigned) [Example 26], the IC50 is 17.3 nM.
With `Cc1cc(F)ccc1Oc1ccc(-c2nn(C3CCCN(C#N)C3)c(N)c2C(N)=O)cc1` (single isomer, unassigned) [Example 33], the IC50 worked out at 24.1 nM.
The figure for `Cc1cc(F)ccc1Oc1ccc(-c2nn(C3CCCN(C#N)C3)c(N)c2C(N)=O)cc1` (single isomer, unassigned) [Example 34] is 3.8 nM; for `N#CN1CCCC(n2nc(-c3ccc(Oc4ccc(F)cc4Cl)cc3)c(C(N)=O)c2N)C1` (single isomer, unassigned) [Example 36] it is 25.3 nM; for `N#CN1CCCC(n2nc(-c3ccc(Oc4ccc(F)cc4Cl)cc3)c(C(N)=O)c2N)C1` (single isomer, unassigned) [Example 37] it is 0.79 nM.
The figure for `N#CN1CCC[C@@H](n2nc(-c3ccc(Cc4ccccc4F)cc3)c(C(N)=O)c2N)C1` (single isomer, unassigned) [Example 75] is 0.81 nM; for `N#CN1CCCC(n2nc(-c3ccc(Cc4cccc(F)c4)cc3)c(C(N)=O)c2N)C1` (single isomer, unassigned) [Example 78] it is 1.4 nM.
As for `N#CN1CCCC(n2nc(-c3ccc(Cc4cccc(F)c4)cc3)c(C(N)=O)c2N)C1` (single isomer, unassigned) [Example 79], the IC50 was 31 nM.
Regarding `N#CN1CCCC(n2nc(-c3ccc(Cc4ccc(F)cc4F)cc3)c(C(N)=O)c2N)C1` (single isomer, unassigned) [Example 81], the IC50 is 5.7 nM.
Take `N#CN1CCCC(n2nc(-c3ccc(Cc4ccc(F)cc4F)cc3)c(C(N)=O)c2N)C1` (single isomer, unassigned) [Example 82]: the half-maximal inhibitory concentration (IC50) worked out at 126 nM.
Under `N#CN1CCCC(n2nc(-c3ccc(Cc4ccc(F)c(F)c4)cc3)c(C(N)=O)c2N)C1` (single isomer, unassigned) [Example 84] stands 5.6 nM; under `N#CN1CCCC(n2nc(-c3ccc(Cc4ccc(F)c(F)c4)cc3)c(C(N)=O)c2N)C1` (single isomer, unassigned) [Example 85], 212 nM.
`N#CN1CCCC(n2nc(-c3cccc(Oc4ccccc4)c3)c(C(N)=O)c2N)C1` (single isomer, unassigned) [Example 90]: the IC50 was 3.2 nM.
The figure for `N#CN1CCCC(n2nc(-c3cccc(Oc4ccccc4)c3)c(C(N)=O)c2N)C1` (single isomer, unassigned) [Example 91] is 154 nM; for `N#CN1CCCC(n2nc(-c3ccc(Oc4ccc(Cl)cn4)cc3)c(C(N)=O)c2N)C1` (single isomer, unassigned) [Example 109] it is 128 nM; for `Cc1ccc(Oc2ccc(-c3nn(C4CCCN(C#N)C4)c(N)c3C(N)=O)cc2)nc1` (single isomer, unassigned) [Example 113] it is 264 nM.
Under `Cc1ccc(Oc2ccc(-c3nn(C4CCCN(C#N)C4)c(N)c3C(N)=O)cc2)nc1` (single isomer, unassigned) [Example 114] stands 10.1 nM.
In the case of `N#CCN1CCCC(n2nc(-c3ccc(Oc4ccccc4)cc3)c(C(N)=O)c2N)C1` (stereo not shown) [Example 4, 5-amino-1-[1-(cyanomethyl)piperidin-3-yl]-3-(4-phenoxyphenyl)-1H-pyrazole-4-carboxamide], the IC50 came out at 35 nM.
Under `N#CN1CCC(n2nc(-c3ccc(Oc4ccccc4)cc3)c(C(N)=O)c2N)CC1` [Example 5, 5-amino-1-(1-cyanopiperidin-4-yl)-3-(4-phenoxyphenyl)-1H-pyrazole-4-carboxamide] stands 32.1 nM; under `N#CN1CCC(n2nc(-c3ccc(Oc4ccccc4)cc3)c(C(N)=O)c2N)C1` (stereo not shown) [Example 7, 5-amino-1-(1-cyanopyrrolidin-3-yl)-3-(4-phenoxyphenyl)-1H-pyrazole-4-carboxamide], 16.2 nM.
The figure for `N#CCN1CCC(n2nc(-c3ccc(Oc4ccccc4)cc3)c(C(N)=O)c2N)C1` (stereo not shown) [Example 8, 5-amino-1-[1-(cyanomethyl)pyrrolidin-3-yl]-3-(4-phenoxyphenyl)-1H-pyrazole-4-carboxamide] is 16.5 nM.
Under `N#CN1CC(n2nc(-c3ccc(Oc4ccccc4)cc3)c(C(N)=O)c2N)C1` [Example 9, 5-amino-1-(1-cyanoazetidin-3-yl)-3-(4-phenoxyphenyl)-1H-pyrazole-4-carboxamide] stands 23.3 nM; under `N#CN1CCOCC(n2nc(-c3ccc(Oc4ccccc4)cc3)c(C(N)=O)c2N)C1` (stereo not shown) [Example 10, 5-amino-1-(4-cyano-1,4-oxazepan-6-yl)-3-(4-phenoxyphenyl)-1H-pyrazole-4-carboxamide], 13.5 nM; under `N#CN1CC2CC1CC2n1nc(-c2ccc(Oc3ccccc3)cc2)c(C(N)=O)c1N` (stereo not shown) [Example 11, 5-amino-1-(2-cyano-2-azabicyclo[2.2.1]hept-5-yl)-3-(4-phenoxyphenyl)-1H-pyrazole-4-carboxamide], 5.9 nM.
For the molecule `N#CCN1CC2CC1CC2n1nc(-c2ccc(Oc3ccccc3)cc2)c(C(N)=O)c1N` (stereo not shown) [Example 12, 5-amino-1-[2-(cyanomethyl)-2-azabicyclo[2.2.1]hept-5-yl]-3-(4-phenoxyphenyl)-1H-pyrazole-4-carboxamide], the IC50 came to 54.2 nM.
Take `N#CN1CCCC(n2nc(-c3ccc(Oc4ccc(Cl)cc4)cc3)c(C(N)=O)c2N)C1` (stereo not shown) [Example 13, 5-amino-3-[4-(4-chlorophenoxy)phenyl]-1-(1-cyanopiperidin-3-yl)-1H-pyrazole-4-carboxamide]: the IC50 was 2.6 nM.
`Cc1ccc(Oc2ccc(-c3nn(C4CCCN(C#N)C4)c(N)c3C(N)=O)cc2)cc1C` (stereo not shown) [Example 16, 5-amino-1-(1-cyanopiperidin-3-yl)-3-[4-(3,4-dimethylphenoxy)phenyl]-1H-pyrazole-4-carboxamide]: the IC50 turned out to be 1.28 nM.
Turning to `Cc1ccc(Oc2ccc(-c3nn(C4CCCN(C#N)C4)c(N)c3C(N)=O)cc2)c(C)c1` (stereo not shown) [Example 23, 5-amino-1-(1-cyanopiperidin-3-yl)-3-[4-(2,4-dimethylphenoxy)phenyl]-1H-pyrazole-4-carboxamide], the IC50 worked out at 9.2 nM.
Under `CC(C)c1ccc(Oc2ccc(-c3nn(C4CCCN(C#N)C4)c(N)c3C(N)=O)cc2)cc1` (stereo not shown) [Example 24, 5-amino-1-(1-cyanopiperidin-3-yl)-3-[4-(4-isopropylphenoxy)phenyl]-1H-pyrazole-4-carboxamide] stands 5 nM; under `N#CN1CCCC(n2nc(-c3ccc(Oc4ccc(F)cc4F)cc3)c(C(N)=O)c2N)C1` (stereo not shown) [Example 25, 5-amino-1-(1-cyanopiperidin-3-yl)-3-[4-(2,4-difluorophenoxy)phenyl]-1H-pyrazole-4-carboxamide], 2.18 nM; under `Cc1cc(Oc2ccc(-c3nn(C4CCCN(C#N)C4)c(N)c3C(N)=O)cc2)ccc1F` (stereo not shown) [Example 31, 5-amino-1-(1-cyanopiperidin-3-yl)-3-[4-(4-fluoro-3-methylphenoxy)phenyl]-1H-pyrazole-4-carboxamide], 2.8 nM.
Consider `Cc1cc(F)ccc1Oc1ccc(-c2nn(C3CCCN(C#N)C3)c(N)c2C(N)=O)cc1` (stereo not shown) [Example 32, 5-amino-1-(1-cyanopiperidin-3-yl)-3-[4-(4-fluoro-2-methylphenoxy)phenyl]-1H-pyrazole-4-carboxamide], for which the IC50 was determined as 4.1 nM.
With `N#CN1CCCC(n2nc(-c3ccc(Oc4ccc(F)cc4Cl)cc3)c(C(N)=O)c2N)C1` (stereo not shown) [Example 35, 5-amino-3-[4-(2-chloro-4-fluorophenoxy)phenyl]-1-(1-cyanopiperidin-3-yl)-1H-pyrazole-4-carboxamide], the IC50 amounted to 1.7 nM.
In the case of `Cc1ccc(Oc2ccc(-c3nn(C4CCCN(C#N)C4)c(N)c3C(N)=O)cc2)c(Cl)c1` (stereo not shown) [Example 38, 5-amino-3-[4-(2-chloro-4-methylphenoxy)phenyl]-1-(1-cyanopiperidin-3-yl)-1H-pyrazole-4-carboxamide], the IC50 was 2.5 nM.
In the case of `Cc1ccc(Oc2ccc(-c3nn(C4CCCN(C#N)C4)c(N)c3C(N)=O)cc2)c(F)c1` (stereo not shown) [Example 39, 5-amino-1-(1-cyanopiperidin-3-yl)-3-[4-(2-fluoro-4-methylphenoxy)phenyl]-1H-pyrazole-4-carboxamide], the IC50 came to 1.1 nM.
The figure for `Cc1cc(Oc2ccc(-c3nn(C4CCCN(C#N)C4)c(N)c3C(N)=O)cc2)ccc1Cl` (stereo not shown) [Example 40, 5-amino-3-[4-(4-chloro-3-methylphenoxy)phenyl]-1-(1-cyanopiperidin-3-yl)-1H-pyrazole-4-carboxamide] is 1.5 nM; for `N#CN1CCCC(n2nc(-c3ccc(Oc4ccc(F)cc4)cc3)c(C(N)=O)c2N)C1` (stereo not shown) [Example 41, 5-amino-1-(1-cyanopiperidin-3-yl)-3-[4-(4-fluorophenoxy)phenyl]-1H-pyrazole-4-carboxamide] it is 6.3 nM.
The figure for `Cc1ccc(Oc2ccc(-c3nn(C4CCCN(C#N)C4)c(N)c3C(N)=O)cc2)cc1` (stereo not shown) [Example 42, 5-amino-1-(1-cyanopiperidin-3-yl)-3-[4-(4-methylphenoxy)phenyl]-1H-pyrazole-4-carboxamide] is 1.2 nM.

These data come from US10266513B2 (Pfizer Inc., priority 2012, dated 2019).
